In the kinase profiling compilation of Christmann-Franck et al. (2016):

Columns and labels:
Assay in all cases: KINOMEscan competition binding
Conditions in all cases: compound 10.0 µM
CDK13 (human) = CDK13 (human) (UniProt Q14004)
CDK4 CCND3 (human) = CDK4 CCND3 (human) (UniProt P11802+P30281)
CDKL3 (human) = CDKL3 (human) (UniProt Q8IVW4)
CPK1 (P.falciparum) = tested on: CPK1 (P.falciparum)
CRK2 (P.falciparum) = CRK2 (P.falciparum) (UniProt P61075)
DDR1 (human) = DDR1 (human) (UniProt Q08345)
DSTYK (human) = DSTYK (human) (UniProt Q6XUX3)
DYRK1A (human) = DYRK1A (human) (UniProt Q13627)
DYRK2 (human) = DYRK2 (human) (UniProt Q92630)
EGFR (human) = EGFR (human) (UniProt P00533)
[1] = tested on: EGFR (human), P00533 [746-750 del]
[2] = tested on: EGFR (human), P00533 [G719S]
ERBB3 (human) = ERBB3 (human) (UniProt P21860)
ERN1 (human) = ERN1 (human) (UniProt O75460)
[3] = tested on: FLT3 (human), P36888 [K663Q]
GRK7 (human) = GRK7 (human) (UniProt Q8WTQ7)
HIPK4 (human) = HIPK4 (human) (UniProt Q8NE63)
ICK (human) = ICK (human) (UniProt Q9UPZ9)
KIT (human) = KIT (human) (UniProt P10721)
MAP3K13 (human) = MAP3K13 (human) (UniProt O43283)
MAST1 (human) = MAST1 (human) (UniProt Q9Y2H9)
NEK3 (human) = NEK3 (human) (UniProt P51956)
NIM1 (human) = NIM1 (human) (UniProt Q8IY84)
OXSR1 (human) = OXSR1 (human) (UniProt O95747)
PIK3C2G (human) = PIK3C2G (human) (UniProt O75747)
[4] = tested on: PIK3CA (human), P42336 [C420R]
[5] = tested on: PIK3CA (human), P42336 [E545K]
[6] = tested on: PIK3CA (human), P42336 [H1047Y]
[7] = tested on: PIK3CA (human), P42336 [Q546K]
PIK3CG (human) = PIK3CG (human) (UniProt P48736)
PIP4K2C (human) = PIP4K2C (human) (UniProt Q8TBX8)
PIP5K1C (human) = PIP5K1C (human) (UniProt O60331)
PRKCI (human) = PRKCI (human) (UniProt P41743)
RPS6KB1 (human) = RPS6KB1 (human) (UniProt P23443)
SBK1 (human) = SBK1 (human) (UniProt Q52WX2)
SGK3 (human) = SGK3 (human) (UniProt Q96BR1)
STK39 (human) = STK39 (human) (UniProt Q9UEW8)
TIE1 (human) = TIE1 (human) (UniProt P35590)
YSK4 (human) = YSK4 (human) (UniProt Q56UN5)
BRAF (human) = BRAF (human) (UniProt P15056)

PIK3CA (human), P42336 [Q546K], sequence (P42336 whole entry Q546K, looked up): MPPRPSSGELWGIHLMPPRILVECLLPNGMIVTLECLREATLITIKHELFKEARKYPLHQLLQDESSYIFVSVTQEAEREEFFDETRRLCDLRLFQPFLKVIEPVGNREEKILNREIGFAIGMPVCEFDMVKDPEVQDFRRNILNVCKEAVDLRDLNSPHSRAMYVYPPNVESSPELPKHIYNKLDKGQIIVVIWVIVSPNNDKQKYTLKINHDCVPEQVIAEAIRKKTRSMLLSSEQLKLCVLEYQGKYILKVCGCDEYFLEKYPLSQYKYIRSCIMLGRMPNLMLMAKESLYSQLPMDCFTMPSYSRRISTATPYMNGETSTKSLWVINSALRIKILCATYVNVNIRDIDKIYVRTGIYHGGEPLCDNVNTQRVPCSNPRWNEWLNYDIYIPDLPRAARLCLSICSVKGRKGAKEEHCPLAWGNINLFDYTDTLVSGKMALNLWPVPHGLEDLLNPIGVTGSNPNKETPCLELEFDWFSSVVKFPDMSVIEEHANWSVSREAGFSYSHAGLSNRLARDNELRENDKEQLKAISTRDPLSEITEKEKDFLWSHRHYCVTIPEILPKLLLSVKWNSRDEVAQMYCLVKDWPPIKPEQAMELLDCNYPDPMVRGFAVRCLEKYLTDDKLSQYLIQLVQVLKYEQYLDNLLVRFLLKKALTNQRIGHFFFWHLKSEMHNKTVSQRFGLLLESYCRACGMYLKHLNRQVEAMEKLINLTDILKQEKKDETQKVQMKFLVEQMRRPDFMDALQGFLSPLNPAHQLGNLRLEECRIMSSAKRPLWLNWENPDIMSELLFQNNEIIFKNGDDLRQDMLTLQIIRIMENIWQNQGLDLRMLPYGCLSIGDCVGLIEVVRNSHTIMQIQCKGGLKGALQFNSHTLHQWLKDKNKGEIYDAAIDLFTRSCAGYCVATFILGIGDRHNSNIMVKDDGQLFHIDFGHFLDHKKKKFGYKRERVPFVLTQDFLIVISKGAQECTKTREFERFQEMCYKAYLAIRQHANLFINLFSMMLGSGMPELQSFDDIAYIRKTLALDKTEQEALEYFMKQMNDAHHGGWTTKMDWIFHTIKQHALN
NEK3 (human), sequence (P51956 whole entry, looked up): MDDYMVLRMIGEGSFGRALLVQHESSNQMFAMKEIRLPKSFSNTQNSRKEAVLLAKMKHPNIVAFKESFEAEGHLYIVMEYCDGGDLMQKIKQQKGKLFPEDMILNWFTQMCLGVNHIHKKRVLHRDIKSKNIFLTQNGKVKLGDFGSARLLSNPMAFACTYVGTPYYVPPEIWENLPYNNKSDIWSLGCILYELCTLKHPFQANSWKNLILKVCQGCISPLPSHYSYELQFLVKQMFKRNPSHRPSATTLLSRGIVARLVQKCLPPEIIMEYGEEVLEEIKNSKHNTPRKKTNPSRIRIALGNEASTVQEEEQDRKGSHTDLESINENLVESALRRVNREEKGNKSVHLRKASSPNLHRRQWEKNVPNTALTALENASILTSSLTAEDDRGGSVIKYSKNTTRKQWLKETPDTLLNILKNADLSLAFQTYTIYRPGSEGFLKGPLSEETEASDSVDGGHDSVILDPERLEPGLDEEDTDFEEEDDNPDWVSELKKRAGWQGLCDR
PIK3CA (human), P42336 [C420R], sequence (P42336 whole entry C420R, looked up): as the sequence (P42336 whole entry Q546K, looked up) above, with C420R, K546Q counted along it
GRK7 (human), sequence (Q8WTQ7 whole entry, looked up): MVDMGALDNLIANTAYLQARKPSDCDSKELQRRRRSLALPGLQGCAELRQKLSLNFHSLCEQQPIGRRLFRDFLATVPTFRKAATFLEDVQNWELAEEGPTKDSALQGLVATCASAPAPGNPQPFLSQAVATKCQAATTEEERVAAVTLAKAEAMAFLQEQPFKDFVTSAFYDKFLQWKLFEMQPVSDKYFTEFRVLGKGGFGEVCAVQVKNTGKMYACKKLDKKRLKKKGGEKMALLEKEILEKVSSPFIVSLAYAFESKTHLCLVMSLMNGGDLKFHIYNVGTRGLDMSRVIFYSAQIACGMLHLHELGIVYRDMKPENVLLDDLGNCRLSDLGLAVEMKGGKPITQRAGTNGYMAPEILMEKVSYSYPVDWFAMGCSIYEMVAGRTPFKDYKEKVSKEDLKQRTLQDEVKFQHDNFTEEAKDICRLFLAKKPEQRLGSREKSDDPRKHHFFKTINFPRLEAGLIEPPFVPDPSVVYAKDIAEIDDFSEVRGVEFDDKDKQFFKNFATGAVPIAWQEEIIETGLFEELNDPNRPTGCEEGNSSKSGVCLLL
TIE1 (human), sequence (P35590 whole entry, looked up): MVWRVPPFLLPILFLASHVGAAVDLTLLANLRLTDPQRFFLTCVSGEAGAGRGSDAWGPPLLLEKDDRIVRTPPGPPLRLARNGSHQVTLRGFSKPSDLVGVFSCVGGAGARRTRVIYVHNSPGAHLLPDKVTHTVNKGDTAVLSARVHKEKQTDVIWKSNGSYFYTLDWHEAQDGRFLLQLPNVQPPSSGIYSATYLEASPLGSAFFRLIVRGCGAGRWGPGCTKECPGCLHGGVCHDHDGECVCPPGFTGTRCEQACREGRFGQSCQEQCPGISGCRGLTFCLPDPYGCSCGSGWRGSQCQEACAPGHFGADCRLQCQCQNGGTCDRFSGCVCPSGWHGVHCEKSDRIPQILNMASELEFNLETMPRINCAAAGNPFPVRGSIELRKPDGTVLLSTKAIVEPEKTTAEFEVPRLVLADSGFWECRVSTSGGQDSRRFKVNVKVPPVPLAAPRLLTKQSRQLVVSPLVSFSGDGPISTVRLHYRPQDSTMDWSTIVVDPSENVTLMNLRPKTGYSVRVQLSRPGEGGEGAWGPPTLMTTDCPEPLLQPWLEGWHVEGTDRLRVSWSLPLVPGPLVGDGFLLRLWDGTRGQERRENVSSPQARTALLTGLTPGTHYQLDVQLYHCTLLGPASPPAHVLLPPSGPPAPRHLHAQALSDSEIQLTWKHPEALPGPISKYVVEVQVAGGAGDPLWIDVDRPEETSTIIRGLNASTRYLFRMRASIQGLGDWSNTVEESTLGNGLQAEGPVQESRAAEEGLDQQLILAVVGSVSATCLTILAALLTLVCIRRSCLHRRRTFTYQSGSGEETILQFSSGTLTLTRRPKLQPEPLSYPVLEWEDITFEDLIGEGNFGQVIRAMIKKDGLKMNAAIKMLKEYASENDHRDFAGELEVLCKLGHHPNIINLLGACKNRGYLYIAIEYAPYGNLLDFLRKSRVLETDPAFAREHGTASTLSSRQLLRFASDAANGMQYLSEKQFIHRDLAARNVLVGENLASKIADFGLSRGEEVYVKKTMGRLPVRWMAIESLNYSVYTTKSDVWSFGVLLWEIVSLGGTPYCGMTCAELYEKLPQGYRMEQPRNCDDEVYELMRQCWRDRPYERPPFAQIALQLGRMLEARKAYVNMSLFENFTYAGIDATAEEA
RPS6KB1 (human), sequence (P23443 whole entry, looked up): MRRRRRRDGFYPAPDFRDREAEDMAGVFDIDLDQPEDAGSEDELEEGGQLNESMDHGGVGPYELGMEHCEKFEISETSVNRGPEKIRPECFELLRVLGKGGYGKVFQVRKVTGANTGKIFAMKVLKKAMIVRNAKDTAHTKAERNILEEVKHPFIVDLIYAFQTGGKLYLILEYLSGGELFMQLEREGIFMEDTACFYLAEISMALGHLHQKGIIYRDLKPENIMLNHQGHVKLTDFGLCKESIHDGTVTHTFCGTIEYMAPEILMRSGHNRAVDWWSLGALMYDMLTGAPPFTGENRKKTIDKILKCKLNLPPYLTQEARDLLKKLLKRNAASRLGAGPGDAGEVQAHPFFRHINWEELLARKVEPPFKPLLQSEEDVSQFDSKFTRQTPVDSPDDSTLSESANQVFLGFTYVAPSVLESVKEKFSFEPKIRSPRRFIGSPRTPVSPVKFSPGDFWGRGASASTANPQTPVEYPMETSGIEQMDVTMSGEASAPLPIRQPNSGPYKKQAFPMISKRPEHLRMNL
PIK3CG (human), sequence (P48736 whole entry, looked up): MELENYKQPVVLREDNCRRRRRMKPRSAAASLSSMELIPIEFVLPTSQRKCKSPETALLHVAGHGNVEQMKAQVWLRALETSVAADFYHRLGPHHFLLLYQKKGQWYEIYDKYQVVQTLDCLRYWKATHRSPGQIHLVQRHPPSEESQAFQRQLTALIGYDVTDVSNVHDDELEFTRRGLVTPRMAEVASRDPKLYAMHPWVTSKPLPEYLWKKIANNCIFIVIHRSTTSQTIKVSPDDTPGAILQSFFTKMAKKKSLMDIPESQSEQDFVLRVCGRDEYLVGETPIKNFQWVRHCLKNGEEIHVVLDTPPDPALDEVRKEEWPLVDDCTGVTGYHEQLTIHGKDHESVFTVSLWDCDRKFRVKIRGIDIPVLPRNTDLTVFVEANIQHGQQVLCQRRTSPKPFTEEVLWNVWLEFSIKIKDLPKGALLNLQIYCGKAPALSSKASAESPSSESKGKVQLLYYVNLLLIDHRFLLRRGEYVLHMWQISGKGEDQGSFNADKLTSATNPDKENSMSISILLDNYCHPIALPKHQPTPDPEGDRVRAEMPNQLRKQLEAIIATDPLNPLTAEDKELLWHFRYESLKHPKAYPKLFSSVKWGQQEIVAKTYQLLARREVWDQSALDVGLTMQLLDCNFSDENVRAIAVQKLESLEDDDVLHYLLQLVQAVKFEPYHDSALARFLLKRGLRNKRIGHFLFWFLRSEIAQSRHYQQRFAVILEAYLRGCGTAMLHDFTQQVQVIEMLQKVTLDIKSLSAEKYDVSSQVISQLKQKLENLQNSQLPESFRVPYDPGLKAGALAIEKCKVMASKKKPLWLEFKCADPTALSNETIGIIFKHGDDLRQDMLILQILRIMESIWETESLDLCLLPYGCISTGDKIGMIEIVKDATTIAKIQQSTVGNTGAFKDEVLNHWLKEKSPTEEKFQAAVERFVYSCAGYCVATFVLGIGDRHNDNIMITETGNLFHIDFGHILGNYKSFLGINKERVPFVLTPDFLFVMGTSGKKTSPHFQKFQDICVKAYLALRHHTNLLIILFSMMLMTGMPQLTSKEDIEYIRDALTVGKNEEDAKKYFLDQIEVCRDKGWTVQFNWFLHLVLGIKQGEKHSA
PIK3CA (human), P42336 [E545K], sequence (P42336 whole entry E545K, looked up): as the sequence (P42336 whole entry Q546K, looked up) above, with E545K, K546Q counted along it
PIK3CA (human), P42336 [H1047Y], sequence (P42336 whole entry H1047Y, looked up): as the sequence (P42336 whole entry Q546K, looked up) above, with K546Q, H1047Y counted along it

Structure (SMILES)	kinase still bound, per cent of control (CDK13 (human))	kinase still bound, per cent of control (CDKL3 (human))	kinase still bound, per cent of control (CRK2 (P.falciparum))	kinase still bound, per cent of control (DDR1 (human))	kinase still bound, per cent of control (DSTYK (human))	kinase still bound, per cent of control (DYRK1A (human))	kinase still bound, per cent of control (DYRK2 (human))	kinase still bound, per cent of control (EGFR (human))	kinase still bound, per cent of control [1]	kinase still bound, per cent of control [2]	kinase still bound, per cent of control (ERBB3 (human))	kinase still bound, per cent of control (ERN1 (human))	kinase still bound, per cent of control [3]	kinase still bound, per cent of control (GRK7 (human))	kinase still bound, per cent of control (HIPK4 (human))	kinase still bound, per cent of control (ICK (human))	kinase still bound, per cent of control (KIT (human))	kinase still bound, per cent of control (MAP3K13 (human))	kinase still bound, per cent of control (MAST1 (human))	kinase still bound, per cent of control (NEK3 (human))	other results
CCN1CCN(Cc2ccc(Nc3ncc4c(n3)N(C)c3ccccc3C(=O)N4C)cc2C(F)(F)F)CC1	100%	100%	100%	14%	7.1%	51%	97%	73%	74%	99%	75%	96%	62%	73%	100%	80%	57%	53%	100%	100%	kinase still bound, per cent of control (CDK4 CCND3 (human)): 100%; kinase still bound, per cent of control (CPK1 (P.falciparum)): 74%; kinase still bound, per cent of control (NIM1 (human)): 57%; kinase still bound, per cent of control (OXSR1 (human)): 59%; kinase still bound, per cent of control (PIK3C2G (human)): 17%; kinase still bound, per cent of control [4]: 18%; kinase still bound, per cent of control [5]: 24%; kinase still bound, per cent of control [6]: 3.3%; kinase still bound, per cent of control [7]: 3.2%; kinase still bound, per cent of control (PIK3CG (human)): 0%; kinase still bound, per cent of control (PIP4K2C (human)): 3.6%; kinase still bound, per cent of control (PIP5K1C (human)): 24%; kinase still bound, per cent of control (PRKCI (human)): 100%; kinase still bound, per cent of control (RPS6KB1 (human)): 48%; kinase still bound, per cent of control (SBK1 (human)): 6.9%; kinase still bound, per cent of control (SGK3 (human)): 86%; kinase still bound, per cent of control (STK39 (human)): 100%; kinase still bound, per cent of control (TIE1 (human)): 22%; kinase still bound, per cent of control (YSK4 (human)): 80%
C=CC(=O)Nc1cc(NC(=O)c2ccc(C)c(NC(=O)c3ccno3)c2)cc(C(F)(F)F)c1	100%	90%	98%	0.1%	100%	99%	78%	79%	81%	100%	100%	90%	100%	100%	100%	75%	4.7%	98%	100%	88%	kinase still bound, per cent of control (CDK4 CCND3 (human)): 95%; kinase still bound, per cent of control (CPK1 (P.falciparum)): 94%; kinase still bound, per cent of control (NIM1 (human)): 98%; kinase still bound, per cent of control (OXSR1 (human)): 100%; kinase still bound, per cent of control (PIK3C2G (human)): 100%; kinase still bound, per cent of control [4]: 82%; kinase still bound, per cent of control [5]: 95%; kinase still bound, per cent of control [6]: 95%; kinase still bound, per cent of control [7]: 78%; kinase still bound, per cent of control (PIK3CG (human)): 76%; kinase still bound, per cent of control (PIP4K2C (human)): 90%; kinase still bound, per cent of control (PIP5K1C (human)): 100%; kinase still bound, per cent of control (PRKCI (human)): 100%; kinase still bound, per cent of control (RPS6KB1 (human)): 87%; kinase still bound, per cent of control (SBK1 (human)): 100%; kinase still bound, per cent of control (SGK3 (human)): 100%; kinase still bound, per cent of control (STK39 (human)): 86%; kinase still bound, per cent of control (TIE1 (human)): 100%; kinase still bound, per cent of control (YSK4 (human)): 74%
COc1cc(N2CCN(C)CC2)ccc1Nc1nc(N)c(C(=O)c2c(Cl)cccc2Cl)s1	83%	86%	87%	98%	52%	72%	89%	100%	85%	88%	50%	99%	100%	100%	24%	7.4%	100%	100%	24%	89%	kinase still bound, per cent of control (BRAF (human)): 94%; kinase still bound, per cent of control (NIM1 (human)): 80%; kinase still bound, per cent of control (OXSR1 (human)): 100%; kinase still bound, per cent of control (PIK3C2G (human)): 100%; kinase still bound, per cent of control [4]: 100%; kinase still bound, per cent of control [5]: 100%; kinase still bound, per cent of control [6]: 100%; kinase still bound, per cent of control [7]: 78%; kinase still bound, per cent of control (PIK3CG (human)): 86%; kinase still bound, per cent of control (PIP4K2C (human)): 46%; kinase still bound, per cent of control (PIP5K1C (human)): 85%; kinase still bound, per cent of control (PRKCI (human)): 93%; kinase still bound, per cent of control (RPS6KB1 (human)): 89%; kinase still bound, per cent of control (SBK1 (human)): 80%; kinase still bound, per cent of control (SGK3 (human)): 100%; kinase still bound, per cent of control (STK39 (human)): 66%; kinase still bound, per cent of control (TIE1 (human)): 100%; kinase still bound, per cent of control (YSK4 (human)): 98%
